From US20050009787A1, “Micronutrient phosphates as dietary and health supplements” (priority 2001, published 2005)

Legend:
[1] = Bioavailability of tocopheryl phosphate in rats (tocopheryl phosphate in liver, ES/MS); type: in vivo, male Sprague-Dawley rats; details: rat
Description: The rats were dosed using the following protocol: • (a) A single dose of the compound was administered to male Sprague-Dawley rats (see Table 1). Oral gavage was with an 18 g gavage needle and 1 ml syringe. Intravenous was with a 26 g hypodermic needle and 1 ml syringe. • (b) Twenty four hours after administrations, the rats were anaesthetized with 60 mg/kg of Nembutal (an anaesthetic from Meril, USA) by intra peritoneal injection. • (c) Once the rats were under deep anaesthesia, a sample of blood was taken from the tail vein, and the femoral vein was exposed and injected with 500 units of heparin. The abdominal cavity was opened and the rat perfused with saline. The liver, heart, epidydimal fat pad, hind-leg muscle and brain was removed and frozen in liquid nitrogen.
The livers were extracted according to the following method: • (a) Homogenise 1 g of liver in 10 ml dichloromethane. • (b) Add 0.1 mg of ditocopheryl phosphate (1 mg/ml in 50% tetrahydrofuran) as an internal standard. • (c) Mix using homogeniser and centrifuge sample. • (d) Remove and evaporate dichloromethane. • (e) Add 9 ml of KOH (2M) and stir for one hour at room temperature. • (f) Add 10 ml hexane, shake and remove hexane (upper) layer. • (g) Add 10 ml HCl (2M) to the 9 ml KOH (2M) solution. • (h) Add 10 ml hexane, shake and remove hexane layer. • (i) Evaporate hexane layer to dryness.
The extracts were analysed and quantitated for TP (μg) content by electrospray mass spectrometry using the established calibration curve (tocopheryl phosphate vs ditocopheryl phosphate).
ES/MS analysis conditions: Sample was dissolved in 1 ml tetrahydrofuran (THF) containing 1% ammonia, 20 μl was injected into the sample loop. The sample was eluted with THF:water (9:1) 20 μl/min. Mass spectrometric analysis was conducted in negative ion mode with cone voltage of 40V using Micromass Platform.

[2] = cited from earlier work
[3] = Stability of tocopheryl phosphate arginine complex in a beverage (pH, turbidity, degradation); type: physicochemical
Description: Four ml was added to each 500 ml bottle using sterile conditions. Three treatment groups were used for each drink: 4° C., 37° C. and room temperature (RT). The drinks were monitored for bacterial growth and contamination on a weekly basis, both visually, and by plating a sample onto LB agar plates, which were grown for 48 hours at 37° C.

CC(=O)Oc1c(C)c(C)c2c(c1C)CCC(C)(CCC[C@H](C)CCC[C@H](C)CCCC(C)C)O2 (some centres unmarked) [Tocopheryl acetate, reference compound]
amount of tocopheryl phosphate present compared to the controls ([1]; oral administration): did not result in a significant increase

COC1=C(OC)C(=O)C(C/C=C(\C)CC/C=C(\C)CC/C=C(\C)CC/C=C(\C)CC/C=C(\C)CC/C=C(\C)CC/C=C(\C)CC/C=C(\C)CC/C=C(\C)CCC=C(C)C)=C(C)C1=O [CoQ10, ubiquinone]
destruction of CoQ10 by boiling ([2]; boiling): no detectable destruction
destruction of CoQ10 by frying ([2]; frying): 14-32%

tocopheryl phosphate arginine complex
Turbidity ([3]; blue Musashi drink with TP, 4° C.): 12.54 NTU
Turbidity ([3]; blue Musashi drink with TP, 37° C.): 28.55 NTU
Turbidity ([3]; blue Musashi drink with TP, RT): 24.05 NTU
amount of degradation of the complex ([3]; in acidic drinks, at the pH required for biological stability): negligible
Turbidity ([3]; orange Musashi drink with TP, 4° C.): 232.0 NTU
Turbidity ([3]; orange Musashi drink with TP, 37° C.): 220.0 NTU
Turbidity ([3]; orange Musashi drink with TP, RT): 224.0 NTU

Tocopheryl phosphate
amount of tocopheryl phosphate detected in the livers ([1]; enteric coating preparation or oral solution): increase
amount of tocopheryl phosphate present in the liver after 24 hours ([1]; intravenous administration, vs controls): significant increase
Tocopheryl phosphate in liver ([1]; intravenous, 10 mg/kg single dose, 24 h after administration): 24.0 µg/g
Tocopheryl phosphate in liver ([1]; intravenous, 30 mg/kg single dose, 24 h): 28.0 µg/g
Tocopheryl phosphate in liver ([1]; oral (enteric coated), 30 mg/kg single dose, 24 h): 19.3 µg/g
Tocopheryl phosphate in liver ([1]; oral, 10 mg/kg single dose, 24 h): 19.2 µg/g
Tocopheryl phosphate in liver ([1]; oral, 30 mg/kg single dose, 24 h): 18.4 µg/g
